# “Also recorded” adds a separate entry of the source.
# Tests used:
# Type in all cases: in vivo, human
# subjects with DED [1] = assay: Ora Ocular Discomfort & 4-Symptom Questionnaire (ODS) diary, clinical study with CAE model; conditions: for Diary Dryness Change from Baseline, ANCOVA LS Mean (SE) / Diary Dryness Change from Baseline, Mean (SD) / Diary Burning Change from Baseline, ANCOVA LS Mean (SE) / Diary Ocular Discomfort Change from Baseline, ANCOVA LS Mean (SE) / Diary Burning Change from Baseline, Mean (SD) / Diary Ocular Discomfort Change from Baseline, Mean (SD): ITT observed data; for Diary Dryness Change from Baseline, Mean (SD) / Diary Burning Change from Baseline, Mean (SD) / Diary Ocular Discomfort Change from Baseline, Mean (SD): score 0 = None to 5 = Worst
# Protocol: (§1) A multi-center, randomized, double masked, placebo controlled clinical study was conducted to assess the safety and efficacy of BRM421 ophthalmic solution (OS) in subjects with DED using a controlled adverse environment (CAE®) model (Ora, Inc., Andover, MA, USA). CAE® uses controlled ocular surface stress to exacerbate the signs and symptoms of DED in a safe and controllable manner.
# (§2) During the first visit (Day-7±1), the subjects were screened, evaluated before CAE®, exposed to CAE®, evaluated after CAE®, and started with the placebo run-in period (7±1 days). During the 7-day study run-in period (for the purpose of subject selection) prior to randomization, all subjects received Placebo OS bilaterally, three times daily (TID). During the second visit, subjects were evaluated before CAE®, exposed to CAE®, and evaluated after CAE®. These evaluations formed the baseline measurements. The subjects were then randomized into two groups to receive either BRM421 ophthalmic solution (OS) or Placebo OS (Vehicle) bilaterally three times daily (TID) for 14 days from Visit 2 to Visit 4.
# Subjects were also asked to grade the severity of their dry eye disease symptoms in their diary in the morning and in the evening before instilling the study drug. The Ora Ocular Discomfort & 4-Symptom Questionnaire (ODS Questionnaire) was used, which included rating the severity of 5 symptoms: ocular discomfort, burning, dryness, grittiness, and stinging. Each symptom rating ranged from 0 to 5, where 0=None and 5=Worst.
# subjects with DED [2] = assay: Corneal damage repair assessed with fluorescein staining, clinical study
# Protocol: as §1, §2
# Severe dry eye cases can lead to cornea damages, which can be assessed with fluorescein staining. PDSP of the invention can treat DED. In addition, these PDSP can also repair corneal damages. […] The selective efficacies of BRM421 treatment in cataract patients are unexpected.
# subjects with DED [3] = assay: Visual analog scale (VAS) ocular symptom ratings, clinical study with CAE model; conditions: DED and cataract, with or without cataract surgery
# Protocol: as §1, §2
# During these visits, subjects were evaluated for symptom efficacy. Specifically, visual analog scale (VAS) was measured by asking subjects to rate each ocular symptom due to ocular dryness. Symptoms assessed include burning/stinging, itching, foreign body sensation, blurred vision, eye dryness, photophobia, and pain.
# [4] = Day 1 to Day 7, morning, pre-CAE baseline
# [5] = Day 8 to 15, Evening, score 0-5
# [6] = Day 8 to 15, Morning, score 0-5
sequence,measurement,setting,value
"SLGAEQRTESIIHRALYYDLISSPDIHGT (listed as Homo sapiens) [BRM421, PEDF-derived short peptide, 29mer, residues 93-121; tested as BRM421 ophthalmic solution (OS)]","Diary Dryness Change from Baseline, ANCOVA LS Mean (SE)","subjects with DED [1]; Day 1 to 7, Evening, score 0-5",−0.243 (0.0484)
same,"Diary Dryness Change from Baseline, Mean (SD)","subjects with DED [1]; Day 1 to 7, Evening",−0.241 (0.5137)
same,"Diary Dryness Change from Baseline, ANCOVA LS Mean Difference (SE), BRM421 OS − Placebo","subjects with DED [1]; Day 1 to 7, Evening, score 0-5",−0.145 (0.0671)
same,"Diary Dryness Change from Baseline, Two-Sample t-test Mean Difference (SE), BRM421 OS − Placebo","subjects with DED [1]; Day 1 to 7, Evening, score 0-5",−0.140 (0.0673)
same,"Diary Burning Change from Baseline, ANCOVA LS Mean (SE)","subjects with DED [1]; Day 1 to 7, Morning, score 0-5",−0.254 (0.0528)
same,"Diary Ocular Discomfort Change from Baseline, ANCOVA LS Mean (SE)","subjects with DED [1]; Day 1 to 7, Morning, score 0-5",−0.138 (0.0518)
same,"Diary Burning Change from Baseline, Mean (SD)","subjects with DED [1]; Day 1 to 7, Morning",−0.256 (0.5580)
same,"Diary Ocular Discomfort Change from Baseline, Mean (SD)","subjects with DED [1]; Day 1 to 7, Morning",−0.149 (0.5064)
same,"Diary Burning Change from Baseline, ANCOVA LS Mean Difference (SE), BRM421 OS − Placebo","subjects with DED [1]; Day 1 to 7, Morning, score 0-5",−0.173 (0.0731)
same,"Diary Burning Change from Baseline, Two-Sample t-test Sample Mean Difference (SE), BRM421 OS − Placebo","subjects with DED [1]; Day 1 to 7, Morning, score 0-5",−0.172 (0.0742)
same,"Diary Ocular Discomfort Change from Baseline, ANCOVA LS Mean Difference (SE), BRM421 OS − Placebo","subjects with DED [1]; Day 1 to 7, Morning, score 0-5",−0.146 (0.0717)
same,"Diary Ocular Discomfort Change from Baseline, Two-Sample t-test Sample Mean Difference (SE), BRM421 OS − Placebo","subjects with DED [1]; Day 1 to 7, Morning, score 0-5",−0.152 (0.0727)
same,Diary ocular discomfort and burning improvement from baseline compared to placebo,"subjects with DED [1]; Day 1 to Day 7, evening",not significant in the evening
same,Diary dryness improvement from baseline compared to placebo (FIG. 3A),"subjects with DED [1]; Day 1 to Day 7, evening, pre-CAE baseline",significantly better improvement
same,Diary dryness improvement from baseline compared to placebo (FIG. 3A),subjects with DED [1]; [4],not significantly better in the morning
same,Diary ocular discomfort and burning improvement from baseline compared to placebo,subjects with DED [1]; [4],significantly better improvements
same,"Diary Dryness Change from Baseline, ANCOVA LS Mean (SE)",subjects with DED [1]; [5],−0.377 (0.0651)
same,"Diary Dryness Change from Baseline, Mean (SD)","subjects with DED [1]; Day 8 to 15, Evening",−0.382 (0.6917)
same,"Diary Dryness Change from Baseline, ANCOVA LS Mean Difference (SE), BRM421 OS − Placebo",subjects with DED [1]; [5],−0.036 (0.0901)
same,"Diary Dryness Change from Baseline, Two-Sample t-test Sample Mean Difference (SE), BRM421 OS − Placebo",subjects with DED [1]; [5],−0.029 (0.0915)
same,"Diary Burning Change from Baseline, ANCOVA LS Mean (SE)",subjects with DED [1]; [6],−0.313 (0.0640)
same,"Diary Ocular Discomfort Change from Baseline, ANCOVA LS Mean (SE)",subjects with DED [1]; [6],−0.223 (0.0656)
same,"Diary Burning Change from Baseline, Mean (SD)","subjects with DED [1]; Day 8 to 15, Morning",−0.332 (0.7199)
same,"Diary Ocular Discomfort Change from Baseline, Mean (SD)","subjects with DED [1]; Day 8 to 15, Morning",−0.248 (0.6696)
same,"Diary Burning Change from Baseline, ANCOVA LS Mean Difference (SE), BRM421 OS − Placebo",subjects with DED [1]; [6],−0.048 (0.0884)
same,"Diary Burning Change from Baseline, Two-Sample t-test Sample Mean Difference (SE), BRM421 OS − Placebo",subjects with DED [1]; [6],−0.048 (0.0939)
same,"Diary Ocular Discomfort Change from Baseline, ANCOVA LS Mean Difference (SE), BRM421 OS − Placebo",subjects with DED [1]; [6],−0.049 (0.0906)
same,"Diary Ocular Discomfort Change from Baseline, Two-Sample t-test Sample Mean Difference (SE), BRM421 OS − Placebo",subjects with DED [1]; [6],−0.058 (0.0936)
same,ODS dryness versus placebo (FIG. 3B),"subjects with DED [1]; Visit 3, both pre-CAE and post-CAE evaluations as baselines",no significant difference
same,ODS burning and ODS stinging versus placebo (FIG. 3B),"subjects with DED [1]; Visit 3, post-CAE evaluations",significant effects
same,Corneal damage repair compared to placebo (FIG. 5D),subjects with DED [2]; patients with cataract and surgery,slight improvements
same,Corneal damage repair compared to placebo (FIG. 5C),subjects with DED [2]; patients with cataract but without surgery,significant improvements; also recorded: more significant
same,Corneal damage repair compared to placebo (FIG. 5B),subjects with DED [2]; subjects with cataract,significant improvements
same,Corneal damage repair (FIG. 5A),subjects with DED [2]; subjects without cataract,did not show significant improvements
same,"VAS burning/stinging compared to placebo (FIG. 4C, FIG. 4D)",subjects with DED [3],significant improvements

# From US20250360185A1, “COMPOSITIONS COMPRISING PEDF-DERIVED SHORT PEPTIDES FOR THE TREATMENT OF DRY EYE DISEASES” (BRIM Biotechnology, Inc., priority 2022, published 2025)
